The source of these data is patent US9475842B2, “Hexadepsipeptide analogues as anticancer compounds” (PIRAMAL ENTERPRISES LIMITED, priority 2012, dated 2016).

As a reminder, the IC50 is the concentration needed to halve the response being measured. A higher IC50 goes with lower potency.

Assay [1] relates to MiaPaca2 (Pancreatic Cancer). The experiment in a line: Monolayer assay (CCK-8 cytotoxicity). It is filed as cell-based. The settings on record: Homo sapiens, MIA PaCa-2, MiaPaca 2, Pancreatic, 24 hrs exposure. As to the method:
(§1) The assays were designed as in the reference, BMC Cancer, 2010, 10, 610, 1-11; the disclosure of which is incorporated by reference for the teaching of the assay.
Human tumour cell lines: Panc-1 (Pancreatic Cancer), HCT 116 (Colorectal Cancer), ACHN (Renal Cell Carcinoma), Calu-1 (Lung Carcinoma), MiaPaca2 (Pancreatic Cancer), FADU (Head and Neck Cancer), PC3 (prostate Cancer), G361 (Melanoma), MDA-MB435S (Melanoma), HeLa (Cervical Cancer) were grown in Minimal Essential Media with Eagle's Basal Salts (MEM-EBS) obtained from AMIMED (BioConcept-Switzerland). Tumour cell lines: MDA-MB231 (Breast Cancer), JURKAT (T cell leukaemia), H460 (Small Cell Lung Cancer) were cultured in RPMI 1640 (AMIMED, BioConcept, Switzerland) medium. All tumour cell lines were supplemented with 10% Foetal Bovine Serum (FBS) (GIBCO), 1% Penicillin/Streptomycin (Sigma) and 1% Anti-Anti (GIBCO) and grown in T-175 tissue culture flasks (Nunc). MCF-10A, a non-tumourigenic cell line, was cultured in Mammary Epithelial Basal Medium (MEBM) with all standard additions (Lonza, Catalog. No. CC-3150). All cells were grown in 5% CO2 incubator at 37° C. Cells were passaged at 80-90% confluence. […]
Compound of Formula (1a) [described in example 7] was dissolved in DMSO to give a required stock solution of 20 mM. […] Each concentration was evaluated in triplicate. […]

The test system of assay [2] is MCF-10A, a non-tumourigenic cell line. Briefly: Monolayer assay (CCK-8 cytotoxicity), normal cells. It is filed as cell-based. The settings on record: MCF10A, Normal Breast Epithelium, 24 hrs exposure, CCK-8. Here is the method:
as §1
Human tumour cell lines: Panc-1 (Pancreatic Cancer), HCT 116 (Colorectal Cancer), ACHN (Renal Cell Carcinoma), Calu-1 (Lung Carcinoma), MiaPaca2 (Pancreatic Cancer), FADU (Head and Neck Cancer), PC3 (prostate Cancer), G361 (Melanoma), MDA-MB435S (Melanoma), HeLa (Cervical Cancer) were grown in Minimal Essential Media with Eagle's Basal Salts (MEM-EBS) obtained from AMIMED (BioConcept-Switzerland). Tumour cell lines: MDA-MB231 (Breast Cancer), JURKAT (T cell leukaemia), H460 (Small Cell Lung Cancer) were cultured in RPMI 1640 (AMIMED, BioConcept, Switzerland) medium. All tumour cell lines were supplemented with 10% Foetal Bovine Serum (FBS) (GIBCO), 1% Penicillin/Streptomycin (Sigma) and 1% Anti-Anti (GIBCO) and grown in T-175 tissue culture flasks (Nunc). MCF-10A, a non-tumourigenic cell line, was cultured in Mammary Epithelial Basal Medium (MEBM) with all standard additions (Lonza, Catalog. No. CC-3150). All cells were grown in 5% CO2 incubator at 37° C. Cells were passaged at 80-90% confluence. Adherent cells were trypsinised using Trypsin-EDTA (Sigma) and maintained. All cell lines were purchased from ATCC (Rockville, Md., USA).
Compound of Formula (1a) [described in example 7] was dissolved in DMSO to give a required stock solution of 20 mM. Eight different concentrations of the compound of Formula (1a) were prepared by serial dilution of stock solution finally resulting in a (compared to the test concentration) 200-fold higher concentration. Compound of Formula (1a) was tested at the concentration of 0.0001 μM, 0.001 μM, 0.01 μM, 0.03 μM, 0.1 μM, 0.3 μM, 1 μM and 3 μM respectively. Each concentration was evaluated in triplicate.
Method for determination of IC50 of the compound of Formula (1a): • a) Different cancer/normal cells were seeded at a density of 3000 cells/200 μL well, in a tissue culture grade 96 well plate and allowed them to recover for 24 hrs in a humidified 5±0.2% CO2 incubator at 37±0.5° C. • b) After 24 hrs, 1 μL of 200× (200 times higher than required concentration is denoted as 200×) compound of Formula (1a), dissolved in DMSO, was added to the above tissue culture plate seeded with cancer/normal cells. The final concentration of DMSO was 0.5% in wells. DMSO was used as a vehicle control. • c) After 24 hrs the plate was removed from CO2 incubator and 5 μL of CCK-8 (Dojindo Molecular Technologies, Inc. USA, catalog, no. CK04-20) per well was added. • d) The plate was then placed at 37° C. for 2 hrs. • e) The absorbance was recorded at 450 nm. • f) The percent cytotoxicity was calculated using the following formula
The IC50 value was estimated by visual inspection of the concentration-effect curve. For calculation of mean IC50 values over the fourteen cell lines as tested, the geometric mean was selected.
The assays were designed as described above in example 16.
The IC50 value was estimated by visual inspection of the concentration-effect curve. For calculation of mean IC50 values over the six cell lines (PC3, MDA MB, HCT116, MCF7, MIAPaCa2, MCF10A) as tested, the geometric mean was selected.

In the next assay the test system is HeLa cancer cells. The experiment in a line: Detection of FITC Annexin V apoptosis by flow cytometry. Conditions: for cells positive for annexin V staining (M2): HeLa cells, 12 hrs. It is filed as cell-based, human. The text has this: The annexin V assay, a classical technique for detecting apoptosis, is the most commonly used method for detecting apoptosis by flow cytometry. One of the earliest features of apoptosis is the translocation of phosphatidylserine from the inner to the outer leaflet of the plasma membrane, thereby exposing phosphatidylserine to the external environment.
Annexin V (cat. no. 556420, BD Biosciences, USA) binds to phosphatidylserine exposed on the cell surface and identifies cells at an earlier stage of apoptosis. • a) HeLa cancer cells [referred to in step 1 of example 16] were seeded at a density of 0.5×10^6 cells/2000 μL well, in a tissue culture grade […] and allowed them to recover for 12 hrs in a humidified 5±0.2% CO2 incubator at 37±0.5° C. • b) After 12 hrs, 5 μL of 200× (200 times higher than required concentration is represented as 200×) compound of Formula (1a) dissolved in DMSO [step 2, example 16] was added to above tissue culture plate seeded with HeLa cancer cells. The final test concentration of the compound of Formula (1a) was 0.0003 μM, 0.003 μM and 0.01 μM. […] The population present in M1 and M2 were determined using FACS analysis.

Structures are written as SMILES.

`CC(C)CC1CCC(O)(C(C)(O)C(=O)NC2C(=O)N3NCCCC3C(=O)N(O)C(C)C(=O)NCC(=O)N3NCCCC3C(=O)N(O)C(C)C(=O)OC2C(C)C)OC1C` (stereo not shown) [Formula (1a), N-(6,18-dihydroxy-22-isopropyl-7,19-dimethyl-5,8,11,17,20,24-hexaoxotetracosa hydrodipyridazino[6,1-f:6′,1′-o][1,4,7,10,13,16]oxapentaazacyclononadecin-23-yl)-2-hydroxy-2-(2-hydroxy-5-isobutyl-6-methyltetrahydro-2H-pyran-2-yl)propanamide]: the IC50 in assay [1] came out at 25.3 ± 4.6 nM; in assay [2] (Homo sapiens, MCF-10A, 24 h), 19 nM; in assay [2] it was 19.7 ± 3.1 nM. Further, in the assay with HeLa cancer cells (HeLa cancer cells, conclusion), the “induction of apoptosis (in words)” value was “induces cell death through apoptosis”. For the same molecule, the results for the “cells positive for annexin V staining (M2)” value in the assay on HeLa cancer cells (0.0003 μM), with HeLa cancer cells (0.003 μM) and in the assay on HeLa cancer cells (0.01 μM) were 33.80%, 40.27% and 59.05%, respectively.
